The subject of data set [1] is Lepomis macrochirus. Particulars: acute; duration: 96 hours; mortality.
Data set [2] concerns Coturnix japonica. As to conditions: acute; oral; mortality.
Data set [3] deals with Rattus norvegicus.
The subject of data set [4] is Colinus virginianus. As to conditions: acute; oral; diet; mortality.
In data set [5] the test system is Mus musculus. As to conditions: acute; oral; mortality.
Data set [6] relates to Anas platyrhynchos. As to conditions: reproductive.
Data set [7] concerns Tagia sp.
In data set [8] the test system is Daphnia magna. As to conditions: chronic/long-term; duration: 22 days; reproduction.
The subject of data set [9] is Apis mellifera. Particulars: acute; duration: 48 hours; oral; unspecified; mortality.
Data set [10] deals with Oncorhynchus mykiss. Particulars: chronic/long-term; duration: 28 days; growth.
Data set [11] deals with Typhlodromus pyri. The data set can be described thus: LR50; higher = less toxic. Particulars: not reported; mortality.

Converted amounts (≈) assume the structure as drawn. “And” between values parts separate entries of the source, which are not always exact repeats. Identical values can stand only once.

What is called NOAEL is the highest tested level that showed no adverse finding.

For the molecule `CC(C)(C)[C@H](O)[C@H](Cc1ccc(Cl)cc1)n1cncn1` (racemic) [Paclobutrazol], the LC50 in data set [1] was 23.6 µg/mL (≈ 80.3 µM); in data set [4], greater than 2790 mg/kg-day; in data set [7] (acute, mortality) it was greater than 1000 mg/kg. For the same molecule, the LD50 in [2] is greater than 2100 mg/kg; in [5] it was 490 mg/kg; in [9], greater than 2 µg/piece. In addition, the NOAEL in data set [3] (chronic, duration: 2 years, clinical chemistry) was found to be 2.2 mg/kg-day; in data set [3] (developmental, development), 10 mg/kg-day. Moreover, the NOEC in [6] was found to be 119 mg/kg-day; in [7] (chronic/long-term, duration: 56 days) it was 1.69 mg/kg; in data set [8], 0.32 mg/L; in data set [10], 3.3 mg/L. In addition, the LR50 in data set [11] was greater than 1000 g/ha.

`NC(Cc1ncn[nH]1)C(=O)O` (stereo not given) [1,2,4-Triazole-3-alanine] showed a no observed adverse effect level (NOAEL) in data set [3] (developmental, development) of 100 mg/kg-day.

With `c1nc[nH]n1` [1H-1,2,4-Triazole], in data set [3] (reproduction developmental), the no observed adverse effect level (NOAEL) is 17 mg/kg-day and 30 mg/kg-day.

The record behind these values is EPA's ToxValDB 9.5 (doi:10.2903/j.efsa.2010.1876).
